The source of these data is patent US20250051324A1, “PARP INHIBITOR, PHARMACEUTICAL COMPOSITION COMPRISING SAME, AND USE THEREOF” (KEYTHERA (SUZHOU) BIO-PHARMACEUTICALS CO., LIMITED, priority 2021, published 2025).

Where two headings read alike, the source gives them in different places.

For series [1], the system named is UWB1.289 ovarian cancer cells. The series can be described thus: Cell proliferation assay, UWB1.289. The series is classed as cell-based. Conditions: UWB1289, 168 h, read-out: UWB1.289 Cell IC50. As for the experimental part: Experimental Materials: MDA-MB-436 or UWB1.289 cell lines were purchased from Cobioer Biosciences Co. Ltd. (Nanjing, China). The STR identification results were a complete match, and mycoplasma testing was negative. MDA-MB-436 cells were cultured in DMEM complete medium containing 10% fetal bovine serum, 1% penicillin-streptomycin, 1% insulin, and 16 μg/mL glutathione; UWB1.289 cells were cultured in RMPI1640 complete medium containing 10% fetal bovine serum and 1% penicillin-streptomycin.
1. MDA-MB-436 or UWB1.289 cells were cultured in the aforementioned medium (culture conditions: 37° C., 5.0% CO2 in air) until they reached the logarithmic growth phase. The cells were then digested with trypsin containing 0.25% EDTA, centrifuged at 1000 rpm, and the supernatant was discarded. Cell culture medium was added, and the cell suspension was adjusted to 2×10^4/mL after counting. 135 μL of the cell suspension per well was taken and cultured in a 96-well cell culture plate for 16 hours (culture conditions: 37° C., 5.0% CO2 in air).
2. The test compounds, stored at a concentration of 10 mM, were diluted 2.5 times with DMSO and then serially diluted in a 1:3 gradient (9 gradients). The gradient-diluted samples were further diluted 40 times with serum-free medium, and 15 μL of each was added to the 96-well cell culture plate. The positive control group received serum-free medium containing the same concentration of DMSO, and the negative control group received medium without cells. The cells were then cultured for an additional 7 days.
3. After the culture period, the cell culture plate was placed at room temperature for 30 minutes. Then, 100 μL of CellCounting-Lite 2.0 reagent (Vazyme, #DD1101) was added to each well, mixed thoroughly, and incubated in the dark at room temperature for 10 minutes. The luminescence signal was read using a Synergy HTX multi-mode reader.
4. Data analysis was performed using GraphPad Prism 8.0 software. The inhibition rate (%) was calculated as 100*(average luminescence signal of the positive control group−luminescence signal of the compound)/(average luminescence signal of the positive control group−average luminescence signal of the negative control group). The IC50 value was obtained by plotting the logarithm of the compound concentration against the percentage inhibition rate.

The target in series [2] is T1, PARP1 (Homo sapiens (Human), UniProt P09874). The series can be described thus: PARP enzyme activity assay (PARP1 chemiluminescent assay kit). The class given is biochemical. The following applies: enzyme inhibitory activity, read-out: PARP-1 IC50. In outline: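 Chemiluminescent kit measuring PARP1 poly(ADP-ribosylation) of plate-coated histones in presence of activated DNA; compounds in 1:3 serial dilution, top 10 μM before 10-fold buffer dilution. Enzyme (2.5 ng/μL added) reacted 60 min at room temperature, detected by streptavidin-HRP luminescence; IC50 from log-concentration vs % inhibition.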

Series [3] addresses T1, PARP1. In words: PARP1 trapping assay. The following applies: read-out: Inhibitory Effect on PARP1 Trapping IC50. The class given is biochemical. As for the experimental part: (§1) [table] […] 1. A 4× enzyme reaction mixture, comprising PARP1, PARP2, and GST-Tb antibody, was prepared with the buffer and 4 μL of the enzyme reaction mixture was added to a 384-well plate. 2. A 4×PARP1 and PARP2 probe reaction mixture was prepared with the buffer and 4 μL of the probe reaction mixture was added to the 384-well plate. 3. A series of gradient-diluted compounds were prepared and 4 μL of the diluted compounds were added to the 384-well plate, and incubated at room temperature for 45 minutes. 4. After incubation, 4 μL of 4×NAD reaction mixture was added to the 384-well plate and incubated at room temperature for 10 minutes. 5. After incubation, the plate was read using a plate reader. 6. Data Analysis: The percentage inhibition rate was calculated as follows: Inhibition Rate (%)=(Reading of Compound Group−Reading of Blank Group)/(Reading of Vehicle Control Group−Reading of Blank Group).

Series [4] relates to MDA-MB-436 breast cancer cells. In words: Cell proliferation assay, MDA-MB-436. The series is classed as cell-based. The following applies: Homo sapiens, MDA-MB-436, 168 h, read-out: MDA-MB-436 Cell IC50. In outline:
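Cells seeded 16 h, then exposed to a 9-point 1:3 compound dilution series for 7 days at 37° C., 5% CO2; DMSO-matched and cell-free controls. Viability by CellCounting-Lite luminescence; IC50 from log concentration versus % inhibition.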

Series [5] can be described thus: Evaluation of pharmacokinetics in rats. The following applies: male, SD, rat, plasma, 1 mg/kg, oral gavage (PO, 1 mpk). The series is classed as in vivo. The text has this:
Test Animals: 6-8 Week Old Male SD Rats
Food was restored two hours after dosing.

Series [6] in a line: Liver microsome metabolism assay. Conditions: CD1, mouse, liver microsomes. (Microsomes from liver hold many membrane-bound enzymes, among them those of drug oxidation.)
Experimental: (§2) Experimental Materials: Mixed CD1 mouse liver microsomal enzyme protein was purchased from Xenotech (#M1000), and NADPH was purchased from Abmole (#M9076).
(§3) 1. To the liver microsomal enzyme reaction system, 210 μL of phosphate buffer was added, followed by 12.5 μL of liver microsomal enzyme at a concentration of 20 mg/mL. Then, 25 μL of NADPH at a concentration of 10 mM was added to the system, mixed well, and incubated in a 37° C. water bath with shaking for 10 minutes.
(§4) 2. The test compound, stored at a concentration of 10 mM, was diluted to 100 μM with DMSO. Then, 2.5 μL of the diluted test compound was added to the reaction system, mixed well, and incubated in a 37° C. water bath with shaking.
(§5) 3. At 0.5, 5, 10, 20, 30, and 60 minutes, 25 μL of the enzyme reaction mixture was taken and added to 125 μL of cold acetonitrile containing dexamethasone as an internal standard. The mixture was centrifuged at 4000 g for 20 minutes, and the supernatant was mixed with an equal volume of distilled water. The mixed sample was then subjected to quantitative analysis by liquid chromatography-mass spectrometry.
(§6) 4. Calculation of in vitro drug metabolism half-life and drug clearance rate:
(§7) t1/2=−0.693/k. (k: the slope of the linear regression of the natural logarithm of the percentage of drug remaining versus incubation time).
Series [7] has as its target PARP2 (Homo sapiens (Human), UniProt Q9UGN5). The series can be described thus: PARP2 trapping assay. The class given is biochemical. The following applies: read-out: Inhibitory Effect on PARP2 Trapping IC50. As for the experimental part:
as §1

A short description of series [8]: Evaluation of pharmacokinetics in mice. The following applies: male, ICR (CD1), mouse, plasma, po, 10 mg/kg.
Experimental: (§8) Test Objective: The pharmacokinetics of the example compounds of the present application were tested in mice. By measuring the drug concentration in mouse plasma, the pharmacokinetic behavior of the compounds of the present invention was studied to evaluate their pharmacokinetic characteristics.
(§9) Test Animals: 6-8 Week Old Male ICR (CD1) Mice
(§10) Oral Gavage Drug Preparation: An appropriate amount of the test compound was first weighed and dissolved in DMSO (Macklin cas: 67-68-5) to prepare a 20 mg/mL solution. Then, 75 μL of this solution was added to 150 μL of Solutol (Sigma cas: 70142-34-6), followed by 1.275 mL of 20% Captisol (Selleck cas: 182410-00-0), resulting in a final drug concentration of 1 mg/mL.
(§11) Intravenous Injection Drug Preparation: An appropriate amount of the test compound was first weighed and dissolved in DMSO (Macklin cas: 67-68-5) to prepare a 30 mg/mL solution. Then, 15 μL of this solution was added to 150 μL of Solutol (Sigma cas: 70142-34-6), followed by 1.335 mL of 20% Captisol (Selleck cas: 182410-00-0), resulting in a final drug concentration of 0.3 mg/mL.
(§12) Procedures: The mice were fasted overnight with free access to water before the experiment. Food was restored two hours after dosing. Blood samples were collected at different time points after intravenous injection or oral gavage of the test compound in mice, and the compound concentration in plasma was measured. Approximately 50 μL of blood was collected from each animal using a capillary sampling tube via the orbital venous plexus, with heparin sodium as an anticoagulant. Blood samples were placed on ice, centrifuged at 3500 r/min for 10 minutes to separate the plasma, and 20 μL of the collected plasma was added to 200 μL of acetonitrile (Merck cas: 75-05-8) containing 200 nM dexamethasone (Selleck cas: 50-02-2) as an internal standard. The mixture was centrifuged at 8000 r/min for 20 minutes. After centrifugation, 150 μL of the supernatant was transferred to a new centrifuge tube, and 150 μL of 0.1% formic acid (Fisher cas: 207868) was added. The mixture was mixed well, and 5 μL of the sample was subjected to quantitative analysis by liquid chromatography-mass spectrometry (Q-TOF LC/MS).
(§13) The test compound was serially diluted with DMSO to cover the compound concentrations expected in plasma samples to be tested, with a blank sample (containing only DMSO) included.
(§14) 2 μL of each diluted sample at various concentrations was added to 18 μL of normal ICR mouse plasma, mixed, and then added to 200 μL of acetonitrile (Merck cas: 75-05-8) containing 200 nM dexamethasone (Selleck cas: 50-02-2) as an internal standard. The mixture was centrifuged for 20 minutes (8000 r/min). 150 μL of the supernatant was transferred to a new centrifuge tube, and 150 μL of 0.1% formic acid (Fisher cas: 207868) was added. The mixture was mixed well, and 5 μL of the sample was subjected to quantitative analysis by liquid chromatography-mass spectrometry (Q-TOF LC/MS).
(§15) The final standard curve was plotted using the concentration of the test compound after dilution on the abscissa and the ratio of the signal of the compound to the internal standard (dexamethasone) on the ordinate. The standard curve was generated using linear regression with GraphPad Prism 8 software (R2>0.9900).
(§16) Data Analysis: calculation of pharmacokinetic parameters: the concentration of the test compound in plasma at different time points after intravenous injection or oral gavage in ICR mice was determined based on the above standard curve, and pharmacokinetic parameters (T1/2, Cmax, AUC, etc.) were calculated using the Phoenix WinNonlin 8.1 non-compartmental analysis model.
A short description of series [9]: in vitro. Conditions: CD1, mouse, microsomes.
Experimental: as §2, §3, §4, §5, §6, §7
Series [10] in a line: in vivo. Conditions: male, ICR (CD1), mouse, po, 10 mg/kg.
Experimental: as §8, §9, §10, §11, §12, §13, §14, §15, §16

Broadly, the IC50 is the midpoint of a concentration-inhibition curve. The term AUC(0-inf) denotes the area under the concentration-time curve extrapolated to infinity. A lower AUC(0-inf) goes with less exposure. The term Cmax denotes the maximum level reached in the sampled fluid or tissue. As usually defined, the half-life is how long it takes for the measured level to halve. Lower therefore signals fast loss. One may read the microsomal CLint as a measure of how fast metabolising enzymes remove a compound, apart from limits set by blood flow.

T1 sequence (P09874 whole entry): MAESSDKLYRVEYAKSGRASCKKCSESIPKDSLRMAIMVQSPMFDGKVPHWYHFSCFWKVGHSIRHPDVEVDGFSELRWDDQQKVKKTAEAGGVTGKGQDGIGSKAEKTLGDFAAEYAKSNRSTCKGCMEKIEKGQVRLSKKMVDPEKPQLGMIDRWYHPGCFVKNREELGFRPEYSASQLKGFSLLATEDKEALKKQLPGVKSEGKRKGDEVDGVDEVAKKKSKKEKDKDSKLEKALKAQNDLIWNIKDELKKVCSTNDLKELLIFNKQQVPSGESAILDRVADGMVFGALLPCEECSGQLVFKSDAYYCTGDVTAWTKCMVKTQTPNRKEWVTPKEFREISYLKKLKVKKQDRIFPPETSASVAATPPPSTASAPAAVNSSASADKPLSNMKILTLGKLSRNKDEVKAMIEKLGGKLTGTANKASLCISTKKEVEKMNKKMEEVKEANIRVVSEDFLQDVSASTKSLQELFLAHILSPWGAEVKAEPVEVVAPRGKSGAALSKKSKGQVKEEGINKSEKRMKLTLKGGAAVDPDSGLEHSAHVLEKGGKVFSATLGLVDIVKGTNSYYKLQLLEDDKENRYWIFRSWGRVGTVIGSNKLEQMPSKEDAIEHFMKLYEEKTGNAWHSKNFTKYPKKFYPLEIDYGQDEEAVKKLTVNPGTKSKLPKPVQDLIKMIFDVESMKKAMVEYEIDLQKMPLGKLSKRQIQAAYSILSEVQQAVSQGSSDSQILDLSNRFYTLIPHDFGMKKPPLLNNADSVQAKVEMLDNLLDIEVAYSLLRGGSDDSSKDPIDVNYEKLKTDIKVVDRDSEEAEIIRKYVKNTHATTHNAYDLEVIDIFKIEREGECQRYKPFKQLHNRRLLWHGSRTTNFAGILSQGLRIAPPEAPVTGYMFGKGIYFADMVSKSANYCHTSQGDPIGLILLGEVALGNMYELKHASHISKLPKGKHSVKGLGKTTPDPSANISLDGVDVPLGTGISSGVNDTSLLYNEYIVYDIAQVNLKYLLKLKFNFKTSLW
PARP2, sequence (Q9UGN5 whole entry): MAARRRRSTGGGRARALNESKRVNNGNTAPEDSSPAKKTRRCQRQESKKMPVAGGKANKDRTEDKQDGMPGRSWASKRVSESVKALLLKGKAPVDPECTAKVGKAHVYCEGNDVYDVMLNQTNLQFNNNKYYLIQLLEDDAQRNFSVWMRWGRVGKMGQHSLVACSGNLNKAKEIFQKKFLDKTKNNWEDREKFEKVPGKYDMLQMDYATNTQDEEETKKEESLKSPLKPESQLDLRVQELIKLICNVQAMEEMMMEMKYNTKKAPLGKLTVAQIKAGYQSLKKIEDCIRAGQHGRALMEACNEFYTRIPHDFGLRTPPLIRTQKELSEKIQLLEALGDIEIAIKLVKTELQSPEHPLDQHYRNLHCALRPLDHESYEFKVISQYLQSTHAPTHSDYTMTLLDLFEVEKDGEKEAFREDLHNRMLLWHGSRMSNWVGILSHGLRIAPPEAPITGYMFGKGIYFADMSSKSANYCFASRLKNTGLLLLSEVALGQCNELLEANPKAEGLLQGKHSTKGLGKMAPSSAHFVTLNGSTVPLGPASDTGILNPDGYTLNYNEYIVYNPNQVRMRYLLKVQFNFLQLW

Take `CNC(=O)c1ccc(N2CCN(Cc3cc4[nH]c(=O)c(C(F)(F)F)c(C)c4cn3)CC2)cn1` [Compound 2, N-methyl-5-(4-((4-methyl-2-oxo-3-(trifluoromethyl)-1,2-dihydro-1,6-naphthyridin-7-yl)methyl)piperazin-1-yl)picolinamide]: the IC50 was 2.76 nM in series [1]; 3.14 nM in [2]; 1.22 nM in [3]; 2.32 nM in series [4]; 137 nM in series [7]. In series [5], the AUC(0-inf) is 19.3 µg·h/mL. In addition, the concentration in [5] peaked (Cmax) at 2000 ng/mL. The molecule also gave a half-life in series [5] of 5.07 h. The molecule further yielded a microsomal CLint at 1 µM in series [6] of 0.39 µL/min/mg.
`CNC(=O)c1ccc(C2=CCN(Cc3cnc4c(C)c(C(F)(F)F)c(=O)[nH]c4c3)CC2)cn1` [Compound 14, N-methyl-1′-((8-methyl-6-oxo-7-(trifluoromethyl)-5,6-dihydro-1,5-naphthyridin-3-yl)methyl)-1′,2′,3′,6′-tetrahydro-[3,4′-bipyridine]-6-carboxamide]: the IC50 in series [1] (proliferation, 7 days) was 4.93 nM; in series [2], 0.83 nM; in series [3] it was 1.38 nM; in series [4] (proliferation, 7 days), 2.38 nM; in [7], 176 nM. Also, the AUC(0-inf) in [5] is 19.2 µg·h/mL; in [8], 2720 µg·h/mL. The maximum concentration (Cmax) was 1770 ng/mL in series [5] and 128000 ng/mL in series [8]. The results for the half-life in [5] and in series [8] were 6.35 h and 27.8 h, respectively.
Take `CNC(=O)c1ccc(N2CCN(Cc3cnc4c(C)c(C(F)(F)F)c(=O)[nH]c4c3)[C@@H](C)C2)cn1` [Compound 52, (S)—N-methyl-5-(3-methyl-4-((8-methyl-6-oxo-7-(trifluoromethyl)-5,6-dihydro-1,5-naphthyridin-3-yl)methyl)piperazin-1-yl)picolinamide]: the IC50 is 11.2 nM in [1] (proliferation, 7 days); 1.6 nM in series [3]; 5.05 nM in series [4] (proliferation, 7 days); 271 nM in series [7]. Further, the AUC(0-inf) in series [5] was 18.8 µg·h/mL; in series [8], 1550 µg·h/mL. The results for the peak concentration (Cmax) in series [5] and in series [8] were 1450 ng/mL and 50200 ng/mL, respectively. Moreover, the values for the half-life in series [5] and in [8] were 5.67 h and 25.9 h, respectively.
As for `CNC(=O)c1ccc(N2CCN(Cc3cnc4c(C)c(C(F)(F)F)c(=O)[nH]c4c3)C[C@H]2C)cn1` [Compound 54, (R)—N-methyl-5-(2-methyl-4-((8-methyl-6-oxo-7-(trifluoromethyl)-5,6-dihydro-1,5-naphthyridin-3-yl)methyl)piperazin-1-yl)picolinamide], the IC50 amounted to 3.34 nM in series [1] (proliferation, 7 days); 1.31 nM in series [3]; 4.32 nM in [4] (proliferation, 7 days); 192 nM in [7]. The figures for the AUC(0-inf) in series [5] and in series [8] were 16.8 µg·h/mL and 987 µg·h/mL, respectively. Further, the results for the Cmax in [5] and in series [8] were 1690 ng/mL and 48200 ng/mL, respectively. Besides, the half-life in series [5] is 7.2 h; in series [8], 17.9 h.
Turning to `CNC(=O)c1cnc(C2=CCN(Cc3cnc4c(C)c(C(F)(F)F)c(=O)[nH]c4c3)CC2)cn1` [Compound 79, N-methyl-5-(1-((8-methyl-6-oxo-7-(trifluoromethyl)-5,6-dihydro-1,5-naphthyridin-3-yl)methyl)-1,2,3,6-tetrahydropyridin-4-yl)pyrazine-2-carboxamide], in [9], the microsomal CLint at 1 µM amounted to 0.69 µL/min/mg. Besides, the IC50 in series [4] (proliferation, 7 days) is 18.5 nM. In [10], this molecule had a total exposure AUC(0-inf) of 2420 µg·h/mL, a Cmax of 57000 ng/mL and a half-life of 30.5 h.
The molecule `CNC(=O)c1ccc(C2=CCN(Cc3cc4[nH]c(=O)c(C(F)(F)F)c(C)c4cn3)CC2)cn1` [Compound 89, N-methyl-1′-((4-methyl-2-oxo-3-(trifluoromethyl)-1,2-dihydro-1,6-naphthyridin-7-yl)methyl)-1′,2′,3′,6′-tetrahydro-[3,4′-bipyridine]-6-carboxamide] had a microsomal CLint at 1 µM in series [9] of 0.81 µL/min/mg. Also, the half-maximal inhibitory concentration (IC50) came out at 1.53 nM in series [3] and 1.06 nM in series [4] (proliferation, 7 days).
